Reference: ChEMBL document CHEMBL4418910, “Methods for categorising cancer such as breast cancer” (2018)

Key:
[1] = target: T1, Serine/threonine-protein kinase LMTK3 (Homo sapiens) (UniProt Q96Q04); experiment: Inhibition of N-terminal GST tag LMTK3 kinase domain (133 to 415 amino acids) (unknown origin) expressed in insect cells incubated for 120 mins by […] fluorescent detection based CisBio KinEASE STK-S1 kit based assay relative to untreated control
T1 sequence (whole entry): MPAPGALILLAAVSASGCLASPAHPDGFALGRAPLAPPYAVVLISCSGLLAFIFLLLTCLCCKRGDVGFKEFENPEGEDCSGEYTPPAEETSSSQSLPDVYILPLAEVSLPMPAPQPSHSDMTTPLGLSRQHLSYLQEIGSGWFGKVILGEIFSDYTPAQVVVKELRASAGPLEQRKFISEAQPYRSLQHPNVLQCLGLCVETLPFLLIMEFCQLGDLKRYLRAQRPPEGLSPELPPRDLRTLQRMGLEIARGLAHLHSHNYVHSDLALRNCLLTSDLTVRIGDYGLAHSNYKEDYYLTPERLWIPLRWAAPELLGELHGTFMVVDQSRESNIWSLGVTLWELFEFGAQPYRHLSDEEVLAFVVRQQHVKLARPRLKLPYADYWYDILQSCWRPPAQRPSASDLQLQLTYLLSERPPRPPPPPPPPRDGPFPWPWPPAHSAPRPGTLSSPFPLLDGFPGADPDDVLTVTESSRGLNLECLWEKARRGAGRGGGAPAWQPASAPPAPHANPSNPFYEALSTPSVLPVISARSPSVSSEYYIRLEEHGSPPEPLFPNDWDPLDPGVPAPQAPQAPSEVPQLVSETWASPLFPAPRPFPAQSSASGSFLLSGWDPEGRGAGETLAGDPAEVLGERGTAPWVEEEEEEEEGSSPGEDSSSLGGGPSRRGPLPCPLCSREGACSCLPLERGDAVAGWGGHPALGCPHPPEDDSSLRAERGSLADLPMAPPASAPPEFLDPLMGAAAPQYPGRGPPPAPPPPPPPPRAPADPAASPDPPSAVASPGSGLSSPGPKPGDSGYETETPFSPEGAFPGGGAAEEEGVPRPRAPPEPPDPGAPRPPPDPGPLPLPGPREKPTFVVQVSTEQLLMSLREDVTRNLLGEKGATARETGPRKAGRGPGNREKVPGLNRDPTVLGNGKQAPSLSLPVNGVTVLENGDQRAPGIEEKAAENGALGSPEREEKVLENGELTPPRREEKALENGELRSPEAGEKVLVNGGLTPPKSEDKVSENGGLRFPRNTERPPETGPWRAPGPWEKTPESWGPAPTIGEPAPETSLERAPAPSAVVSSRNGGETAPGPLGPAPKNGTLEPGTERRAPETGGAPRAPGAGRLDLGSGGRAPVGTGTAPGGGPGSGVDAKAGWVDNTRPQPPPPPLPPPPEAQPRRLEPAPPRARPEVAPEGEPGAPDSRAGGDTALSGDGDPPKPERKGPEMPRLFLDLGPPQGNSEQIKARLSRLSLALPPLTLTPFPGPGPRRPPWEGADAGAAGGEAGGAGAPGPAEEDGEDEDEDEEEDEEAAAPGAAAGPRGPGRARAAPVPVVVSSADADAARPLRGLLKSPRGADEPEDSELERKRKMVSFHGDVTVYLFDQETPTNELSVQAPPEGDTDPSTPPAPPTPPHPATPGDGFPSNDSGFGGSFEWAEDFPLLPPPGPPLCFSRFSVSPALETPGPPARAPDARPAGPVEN

[2] = target: T2, Serine/threonine-protein kinase LMTK3 (Homo sapiens, UniProt Q96Q04); experiment: Inhibition of N-terminal GST tag LMTK3 kinase domain (133 to 415 amino acids) (unknown origin) expressed in insect cells incubated for 120 mins by […] fluorescent detection based CisBio KinEASE STK-S1 kit based assay
T2 sequence (Q96Q04 whole entry): T1 sequence (whole entry)

CN(C)CCCn1cc(C2=C(c3c[nH]c4ccccc34)C(=O)NC2=O)c2ccccc21 [GF-109203]
inhibition [1]: 108% | IC50 [2]: 0.132 nM

COC(=O)[C@@]1(O)C[C@H]2O[C@]1(C)n1c3ccccc3c3c4c(c5c6ccccc6n2c5c31)C(=O)NC4
inhibition [1]: 98.9%

CN[C@@H]1C[C@H]2O[C@@](C)([C@@H]1OC)n1c3ccccc3c3c4c(c5c6ccccc6n2c5c31)C(=O)NC4
inhibition [1]: 109%

CCCCCCOC(=O)[C@]1(O)C[C@H]2O[C@]1(C)n1c3ccccc3c3c4c(c5c6ccccc6n2c5c31)C(=O)NC4
inhibition [1]: 98.7% | IC50 [2]: 0.117 nM
